Assay results reported in ChEMBL document CHEMBL1201862, “PubChem BioAssay data set” (2004).
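How tested: cells in 96-well plates exposed to compound for 48 hours at five concentrations. Abbreviation: GI50, concentration required for 50% inhibition of growth.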 Activity calls are given as the source filed them. No stated cut-off is given here; in the data, active = GI50 up to about 1.1 µM and inactive = higher.

Tests used:
Experiment in all cases: growth of human tumour cells (NCI), 48 h
CAKI-1 = tested on: CAKI-1
COLO 205 = tested on: COLO 205
HOP-62 = tested on: HOP-62
IGROV-1 = tested on: IGROV-1
KM12 = tested on: KM12
LOX IMVI = tested on: LOX IMVI
NCI-H522 = tested on: NCI-H522
OVCAR-3 = tested on: OVCAR-3
OVCAR-8 = tested on: OVCAR-8
PC-3 = tested on: PC-3
SF-268 = tested on: SF-268
SK-MEL-5 = tested on: SK-MEL-5
SK-OV-3 = tested on: SK-OV-3
UO-31 = tested on: UO-31
HT-29 = tested on: HT-29
MOLT-4 = tested on: MOLT-4
SK-MEL-28 = tested on: SK-MEL-28
SK-MEL-2 = tested on: SK-MEL-2
MDA-MB-435 = tested on: MDA-MB-435
T47D = tested on: T47D

Measured: GI50

CCOC(=O)c1cn2c(n1)sc1cccc(C)c12
inactive: CAKI-1 > 100 µM | COLO 205 > 100 µM | HOP-62 > 100 µM | IGROV-1 47.3 µM | KM12 > 100 µM | LOX IMVI > 100 µM | NCI-H522 > 100 µM | OVCAR-3 > 100 µM | OVCAR-8 > 100 µM | PC-3 > 100 µM | SF-268 > 100 µM | SK-MEL-5 63.4 µM | SK-OV-3 > 100 µM | UO-31 72.8 µM

CCCCCCC(=O)C/C(CCC(=O)N(Cc1ccccc1)Cc1ccccc1)=N\NC(N)=O
inactive: CAKI-1 > 100 µM | COLO 205 > 100 µM | HOP-62 > 100 µM | HT-29 > 100 µM | IGROV-1 > 100 µM | KM12 > 100 µM | LOX IMVI > 100 µM | MOLT-4 > 100 µM | NCI-H522 > 100 µM | OVCAR-3 > 100 µM | OVCAR-8 > 100 µM | SF-268 > 100 µM | SK-MEL-28 > 100 µM | SK-MEL-2 > 100 µM | SK-MEL-5 > 100 µM | SK-OV-3 > 100 µM | UO-31 > 100 µM

COc1ccc(/C=C2\N=C3NC(=O)C(N4CCOCC4)=C(N)N3C2=O)cc1
inactive: CAKI-1 > 100 µM | COLO 205 > 100 µM | HT-29 > 100 µM | IGROV-1 85.5 µM | KM12 > 100 µM | LOX IMVI > 100 µM | MDA-MB-435 > 100 µM | MOLT-4 > 100 µM | NCI-H522 75.3 µM | OVCAR-8 > 100 µM | SF-268 76.2 µM | SK-MEL-28 > 100 µM | SK-MEL-5 > 100 µM | SK-OV-3 > 100 µM | T47D > 100 µM | UO-31 > 100 µM

CC(C)CC(NC(=O)C(CI)Cc1ccccc1)C(=O)Nc1ccccc1 (stereo not drawn)
inactive: CAKI-1 > 100 µM | COLO 205 > 100 µM | IGROV-1 > 100 µM | KM12 > 100 µM | LOX IMVI > 100 µM | MDA-MB-435 > 100 µM | MOLT-4 > 100 µM | NCI-H522 > 100 µM | OVCAR-3 > 100 µM | OVCAR-8 > 100 µM | PC-3 > 100 µM | SK-MEL-28 > 100 µM | SK-MEL-2 > 100 µM | SK-MEL-5 > 100 µM | SK-OV-3 > 100 µM | UO-31 > 100 µM

COC1OC(Cc2nnc(C)o2)C(OCc2ccccc2)C(OCc2ccccc2)C1OCc1ccccc1 (stereo not drawn)
inactive: CAKI-1 35.6 µM | COLO 205 20.7 µM | HOP-62 52.1 µM | HT-29 26.4 µM | IGROV-1 13.9 µM | KM12 15.8 µM | LOX IMVI 20.1 µM | MDA-MB-435 19.7 µM | MOLT-4 16 µM | NCI-H522 19.4 µM | OVCAR-3 18.3 µM | SF-268 21.5 µM | SK-MEL-28 22.9 µM | SK-MEL-2 14.5 µM | SK-MEL-5 16.3 µM | SK-OV-3 77.4 µM | T47D 52.5 µM | UO-31 33.1 µM

N#Cc1c(-c2ccc(Cl)cc2)c2c(n(C3OC(CO)C(O)C(O)C3O)c1=S)CCCC2 (stereo not drawn)
inactive: CAKI-1 > 100 µM | COLO 205 38.3 µM | HOP-62 85.3 µM | HT-29 73.3 µM | IGROV-1 59.2 µM | KM12 50 µM | LOX IMVI 47.2 µM | MDA-MB-435 54.8 µM | MOLT-4 26.1 µM | NCI-H522 63.2 µM | OVCAR-3 69.8 µM | OVCAR-8 80.4 µM | PC-3 56.2 µM | SF-268 > 100 µM | SK-MEL-28 78.7 µM | SK-MEL-2 > 100 µM | SK-MEL-5 18.4 µM | UO-31 74.5 µM

O=C1CSC(c2c[nH]c3ccccc23)N1c1cccc(Cl)c1 (stereo not drawn)
inactive: COLO 205 50.7 µM | HOP-62 54.7 µM | HT-29 37.8 µM | IGROV-1 27.9 µM | KM12 50.1 µM | MDA-MB-435 33.6 µM | MOLT-4 38.5 µM | OVCAR-3 27.9 µM | OVCAR-8 > 100 µM | SF-268 89.5 µM | SK-MEL-28 > 100 µM | SK-MEL-2 30.1 µM | SK-MEL-5 40 µM | SK-OV-3 > 100 µM | T47D > 100 µM | UO-31 84.5 µM

C=CCN1C(=O)/C(=C\c2cc(C(C)(C)C)c(O)c(C(C)(C)C)c2)NC1=S
inactive: CAKI-1 22.3 µM | COLO 205 16.9 µM | HOP-62 20.9 µM | HT-29 17.3 µM | IGROV-1 36.6 µM | KM12 19.4 µM | LOX IMVI 16.4 µM | MDA-MB-435 24 µM | MOLT-4 30.7 µM | NCI-H522 12.4 µM | OVCAR-3 12.1 µM | OVCAR-8 33.9 µM | PC-3 14.2 µM | SF-268 36.1 µM | SK-MEL-28 30.6 µM | SK-MEL-2 14.1 µM | SK-MEL-5 15.9 µM | SK-OV-3 34.1 µM | UO-31 28.8 µM

CC1=NN(c2nc(N)nc(-c3sccc3N)n2)C(C)(C)C1
inactive: CAKI-1 > 100 µM | COLO 205 79.1 µM | HOP-62 > 100 µM | HT-29 > 100 µM | IGROV-1 > 100 µM | KM12 46.1 µM | LOX IMVI 90.4 µM | MDA-MB-435 45 µM | MOLT-4 83.9 µM | NCI-H522 32.7 µM | OVCAR-3 > 100 µM | OVCAR-8 62.5 µM | SF-268 > 100 µM | SK-MEL-28 40.2 µM | SK-MEL-5 41.1 µM | SK-OV-3 > 100 µM | UO-31 > 100 µM

COc1cc(O)c2c(c1)C(=O)c1cc3c(c(O)c1C2=O)C(OC1OC(C)C(OC)C(O)C1OC)C(OC)C(C)(O)C3=O (stereo not drawn)
inactive: CAKI-1 3.04 µM | COLO 205 3.09 µM | HOP-62 5.46 µM | HT-29 3.37 µM | IGROV-1 2.12 µM | KM12 3.7 µM | LOX IMVI 2.7 µM | MDA-MB-435 3.8 µM | MOLT-4 3.14 µM | NCI-H522 1.68 µM | OVCAR-3 2.84 µM | OVCAR-8 2.36 µM | PC-3 3.36 µM | SF-268 5.55 µM | SK-MEL-28 7.01 µM | SK-MEL-2 8.11 µM | SK-MEL-5 1.68 µM | SK-OV-3 13.3 µM

CC(=O)C1C(=O)C(=O)N(c2ccc(Br)cc2)C1=O (stereo not drawn)
inactive: CAKI-1 > 100 µM | COLO 205 > 100 µM | HOP-62 > 100 µM | HT-29 > 100 µM | IGROV-1 > 100 µM | KM12 > 100 µM | LOX IMVI > 100 µM | MDA-MB-435 > 100 µM | MOLT-4 > 100 µM | NCI-H522 > 100 µM | OVCAR-3 > 100 µM | OVCAR-8 > 100 µM | PC-3 > 100 µM | SF-268 > 100 µM | SK-MEL-28 > 100 µM | SK-MEL-2 > 100 µM | SK-MEL-5 > 100 µM | SK-OV-3 > 100 µM | UO-31 > 100 µM
